The text below walks through data of US12172990B2 (Constellation Pharmaceuticals, Inc., priority 2018, dated 2024).

The target in experiment [1] is human TREX2 (residues M44-A279) (Homo sapiens (Human), UniProt Q9BQ50). The experiment can be described thus: TREX2 Biochemical Assay (fluorescence assay measuring degradation of dsDNA substrate). The note with it: 2.5 nM TREX2, 60 nM dsDNA substrate, 25 minutes at room temperature. Here is the method: Degradation of the dsDNA liberates free fluorophore to produce a fluorescent signal. Specifically, 7.5 μL of N-terminally His-Tev tagged human TREX2 (residues M44-A279, expressed in E. coli and purified in house) in reaction buffer (50 mM Tris (pH 7.4), 150 mM NaCl, 2 mM DTT, 0.1 mg/mL BSA, 0.01% (v/v) Tween-20 and 100 mM MgCl2) was added to a 384-well Black ProxiPlate Plus (Perkin Elmer) which already contained compound (150 nL) at varying concentrations as a 10 point dose-response in DMSO. To this was added 7.5 μL of dsDNA substrate (Strand A: 5′ TEX615/GCT AGG CAG 3′; Strand B: 5′ CTG CCT AGC/IAbRQSp (IDT)) in reaction buffer. Final concentrations were 2.5 nM TREX2, 60 nM dsDNA substrate in reaction buffer with 1.0% DMSO (v/v). After 25 minutes at room temperature, reactions were quenched by the addition of 5 μL of stop buffer (same as reaction buffer plus 200 mM EDTA). Final concentrations in the quenched reaction mixture were […] TREX2, 45 nM DNA and 50 mM EDTA in a volume of 20 μL. After a 5-minute incubation at room temperature, plates were read in a laser sourced Envision (Perkin-Elmer), measuring fluorescence at 615 nm following excitation w/570 nm light. IC50 values were calculated by comparing the measured fluorescence at 615 nm ratio relative to control wells pre-quenched w/stop buffer (100% inhibition) and no inhibitor (0% inhibition) controls as using non-linear least square four parameter fits and either Genedata or GraphPad Prism (GraphPad Software, Inc.).

The target in experiment [2] is full length human TREX1 (Homo sapiens (Human), UniProt Q9NSU2). The experiment can be described thus: TREX1 Biochemical Assay (fluorescence assay measuring degradation of dsDNA substrate). The note with it: 150 pM TREX1, 60 nM dsDNA substrate, 25 minutes at room temperature. The procedure:
Degradation of the dsDNA liberates free fluorophore to produce a fluorescent signal. Specifically, 7.5 μL of N-terminally His-Tev tagged full length human TREX1 (expressed in E. coli and purified in house) in reaction buffer (50 mM Tris (pH 7.4), 150 mM NaCl, 2 mM DTT, 0.1 mg/mL BSA, 0.01% (v/v) Tween-20 and 100 mM MgCl2 were added to a 384-well Black ProxiPlate Plus (Perkin Elmer) which already contained compound (150 nL) at varying concentrations as a 10 point dose-response in DMSO. To this was added 7.5 μL of dsDNA substrate (Strand A: 5′ TEX615/GCT AGG CAG 3′; Strand B: 5′ CTG CCT AGC/IAbRQSp (Integrated DNA Technologies)) in reaction buffer. Final concentrations were 150 pM TREX1, 60 nM dsDNA substrate in reaction buffer with 1.0% DMSO (v/v). After 25 minutes at room temperature, reactions were quenched by the addition of 5 μL of stop buffer (same as reaction buffer plus 200 mM EDTA). Final concentrations in the quenched reaction were 112.5 pM TREX1, 45 nM DNA and 50 mM EDTA in a volume of 20 μL. After a 5-minute incubation at room temperature, plates were read in a laser sourced Envision (Perkin-Elmer), measuring fluorescence at 615 nm following excitation w/570 nm light. IC50 values were calculated by comparing the measured fluorescence at 615 nm ratio relative to control wells pre-quenched w/stop buffer (100% inhibition) and no inhibitor (0% inhibition) controls as using non-linear least square four parameter fits and either Genedata or GraphPad Prism (GraphPad Software, Inc.).

Each structure is given as a SMILES string.

The term IC50 denotes the concentration that gives 50% inhibition. A high value points to weaker potency in that assay.

Chain of human TREX2 (residues M44-A279) (Q9BQ50 whole entry, the tested form may be a part): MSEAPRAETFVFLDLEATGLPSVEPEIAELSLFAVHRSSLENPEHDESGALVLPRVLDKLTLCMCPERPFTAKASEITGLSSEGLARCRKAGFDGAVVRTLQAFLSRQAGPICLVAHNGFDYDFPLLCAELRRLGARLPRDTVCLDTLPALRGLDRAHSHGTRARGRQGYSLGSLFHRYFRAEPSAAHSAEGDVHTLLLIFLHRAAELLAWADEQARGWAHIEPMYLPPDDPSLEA
Chain of full length human TREX1 (Q9NSU2 whole entry): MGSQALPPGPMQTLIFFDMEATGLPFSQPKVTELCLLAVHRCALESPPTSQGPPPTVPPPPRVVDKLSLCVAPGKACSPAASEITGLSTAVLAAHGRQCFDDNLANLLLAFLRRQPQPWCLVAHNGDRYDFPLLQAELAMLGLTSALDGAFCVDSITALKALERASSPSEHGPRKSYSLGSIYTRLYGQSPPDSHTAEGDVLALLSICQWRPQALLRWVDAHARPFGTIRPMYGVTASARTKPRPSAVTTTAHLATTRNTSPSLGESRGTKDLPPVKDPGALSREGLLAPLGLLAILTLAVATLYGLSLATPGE

Consider `Cn1c(C2(NC(=O)OCc3ccccc3)CC2)nc(C(=O)Nc2cnoc2)c(O)c1=O` [Example 7, benzyl (1-(5-hydroxy-4-(isoxazol-4-ylcarbamoyl)-1-methyl-6-oxo-1,6-dihydropyrimidin-2-yl)cyclopropyl)carbamate], for which the 50% inhibitory concentration (IC50) in experiment [1] was 10 to 100 µM; in experiment [2], 0.1 to 1 µM.
For the compound `Cc1cc(Br)cc(-c2nc(C(=O)Nc3cnoc3)c(O)c(=O)n2C)c1` [Example 1, 2-(3-bromo-5-methylphenyl)-5-hydroxy-N-(isoxazol-4-yl)-1-methyl-6-oxo-1,6-dihydropyrimidine-4-carboxamide], the results for the IC50 in experiment [1] and in experiment [2] were 1 to 10 µM and < 0.1 µM, respectively.
Consider `Cn1c([C@@H]2CCN(C(=O)c3ccc(Cl)cc3)C2)nc(C(=O)Nc2cnoc2)c(O)c1=O` [Example 86, (R)-2-(1-(4-chlorobenzoyl)pyrrolidin-3-yl)-5-hydroxy-N-(isoxazol-4-yl)-1-methyl-6-oxo-1,6-dihydropyrimidine-4-carboxamide], for which the IC50 in experiment [1] lay in the range of 10 to 100 µM; in experiment [2] it was 0.1 to 1 µM.
The matching figures for `Cc1cccc(-c2nc(C(=O)Nc3cnoc3)c(O)c(=O)n2C)c1` [Example 44, 5-hydroxy-N-(isoxazol-4-yl)-1-methyl-6-oxo-2-(m-tolyl)-1,6-dihydropyrimidine-4-carboxamide]: 10 to 100 µM and 0.1 to 1 µM.
On to `Cc1cc(Nc2cnn(C)c2)cc(-c2nc(C(=O)Nc3cnoc3)c(O)c(=O)n2C)c1` [Example 32, 5-hydroxy-N-(isoxazol-4-yl)-1-methyl-2-(3-methyl-5-((1-methyl-1H-pyrazol-4-yl)amino)phenyl)-6-oxo-1,6-dihydropyrimidine-4-carboxamide], for which the figures for the half-inhibitory concentration (IC50) in experiment [1] and in experiment [2] were 1 to 10 µM and 0.1 to 1 µM, respectively.
Take `Cn1c(C2CCCCN2C(=O)OC(C)(C)C)nc(C(=O)Nc2cnoc2)c(O)c1=O` (centres unmarked) [Example 14, tert-butyl 2-(5-hydroxy-4-(isoxazol-4-ylcarbamoyl)-1-methyl-6-oxo-1,6-dihydropyrimidin-2-yl)piperidine-1-carboxylate]: the IC50 lay within 1 to 10 µM in experiment [1] and 0.1 to 1 µM in experiment [2].
`Cc1cc(C(=O)N(C)C)cc(-c2nc(C(=O)Nc3cnoc3)c(O)c(=O)n2C)c1` [Example 36, 2-(3-(dimethylcarbamoyl)-5-methylphenyl)-5-hydroxy-N-(isoxazol-4-yl)-1-methyl-6-oxo-1,6-dihydropyrimidine-4-carboxamide]: the IC50 is 10 to 100 µM in experiment [1] and 0.1 to 1 µM in experiment [2].
In the case of `Cn1nnc(-c2nc(C(=O)Nc3cnoc3)c(O)c(=O)n2C)c1CCO` [Example 74, 5-hydroxy-2-(5-(2-hydroxyethyl)-1-methyl-1H-1,2,3-triazol-4-yl)-N-(isoxazol-4-yl)-1-methyl-6-oxo-1,6-dihydropyrimidine-4-carboxamide], the IC50 in experiment [1] is 10 to 100 µM; in experiment [2], 1 to 10 µM.
As for `Cn1c(C2CCCN(CCc3ccccc3)C2)nc(C(=O)Nc2cnoc2)c(O)c1=O` (centres unmarked) [Example 129, 5-hydroxy-N-(isoxazol-4-yl)-1-methyl-6-oxo-2-(1-phenethylpiperidin-3-yl)-1,6-dihydropyrimidine-4-carboxamide], the IC50 was > 100 µM in experiment [1] and > 10 µM in experiment [2].
Regarding `Cn1c(C2CCCN(C(=O)Cc3ccccc3)C2)nc(C(=O)Nc2cnoc2)c(O)c1=O` (centres unmarked) [Example 61, 5-hydroxy-N-(isoxazol-4-yl)-1-methyl-6-oxo-2-(1-(2-phenylacetyl)piperidin-3-yl)-1,6-dihydropyrimidine-4-carboxamide], the concentration for half-maximal inhibition (IC50) fell in the range of 1 to 10 µM in experiment [1] and 0.1 to 1 µM in experiment [2].
In the case of `Cn1c(N2CCCCC2)nc(C(=O)Nc2cnoc2)c(O)c1=O` [Example 28, 5-hydroxy-N-(isoxazol-4-yl)-1-methyl-6-oxo-2-(piperidin-1-yl)-1,6-dihydropyrimidine-4-carboxamide], the half-inhibitory concentration (IC50) lay within 10 to 100 µM in experiment [1] and 0.1 to 1 µM in experiment [2].
Consider `Cn1c(C2CCCN(C(=O)c3cccnc3)C2)nc(C(=O)Nc2cnoc2)c(O)c1=O` (centres unmarked) [Example 62, 5-hydroxy-N-(isoxazol-4-yl)-1-methyl-2-(1-nicotinoylpiperidin-3-yl)-6-oxo-1,6-dihydropyrimidine-4-carboxamide], for which the IC50 was in the range of 1 to 10 µM in experiment [1] and 0.1 to 1 µM in experiment [2].
As to `Cn1c(-c2ccc(Br)cc2)nc(C(=O)Nc2cnoc2)c(O)c1=O` [Example 11, 2-(4-bromophenyl)-5-hydroxy-N-(isoxazol-4-yl)-1-methyl-6-oxo-1,6-dihydropyrimidine-4-carboxamide], the IC50 in experiment [1] lay within 10 to 100 µM; in experiment [2], 0.1 to 1 µM.
With `Cn1c(C2(Cc3ccccc3)CCCN(C(=O)OC(C)(C)C)C2)nc(C(=O)Nc2cnoc2)c(O)c1=O` (centres unmarked) [Example 50, tert-butyl 3-benzyl-3-(5-hydroxy-4-(isoxazol-4-ylcarbamoyl)-1-methyl-6-oxo-1,6-dihydropyrimidin-2-yl)piperidine-1-carboxylate], the concentration for half-maximal inhibition (IC50) in experiment [1] was in the range of 10 to 100 µM; in experiment [2], 0.1 to 1 µM.
Turning to `Cn1c(-c2cc(Br)ccc2OCCO)nc(C(=O)Nc2cnoc2)c(O)c1=O` [Example 70, 2-(5-bromo-2-(2-hydroxyethoxy)phenyl)-5-hydroxy-N-(isoxazol-4-yl)-1-methyl-6-oxo-1,6-dihydropyrimidine-4-carboxamide], the 50% inhibitory concentration (IC50) in experiment [1] is 1 to 10 µM; in experiment [2] it was < 0.1 µM.
Turning to `CC(C)(C)OC(=O)N1CCCC(c2nc(C(=O)Nc3cnoc3)c(O)c(=O)[nH]2)C1` (centres unmarked) [Example 16, tert-butyl 3-(5-hydroxy-4-(isoxazol-4-ylcarbamoyl)-6-oxo-1,6-dihydropyrimidin-2-yl)piperidine-1-carboxylate], the concentration for half-maximal inhibition (IC50) fell in the range of 10 to 100 µM in experiment [1] and 0.1 to 1 µM in experiment [2].
In the case of `Cn1c(C2(C)CCCN(C(=O)c3ccc(Cl)c(Cl)c3)C2)nc(C(=O)Nc2cnoc2)c(O)c1=O` (centres unmarked) [Example 130, 2-(1-(3,4-dichlorobenzoyl)-3-methylpiperidin-3-yl)-5-hydroxy-N-(isoxazol-4-yl)-1-methyl-6-oxo-1,6-dihydropyrimidine-4-carboxamide], the 50% inhibitory concentration (IC50) in experiment [1] was in the range of 1 to 10 µM; in experiment [2], 0.1 to 1 µM.
For the compound `Cn1c(-c2ccccc2N[C@H]2C[C@@H](O)C2)nc(C(=O)Nc2cnoc2)c(O)c1=O` [Example 76, 5-hydroxy-2-(2-(((1s,3s)-3-hydroxycyclobutyl)amino)phenyl)-N-(isoxazol-4-yl)-1-methyl-6-oxo-1,6-dihydropyrimidine-4-carboxamide], the IC50 in experiment [1] is 10 to 100 µM; in experiment [2], 0.1 to 1 µM.
With `Cn1c(N2CCN(C(=O)c3ccccc3)CC2)nc(C(=O)Nc2cnoc2)c(O)c1=O` [Example 100, 2-(4-benzoylpiperazin-1-yl)-5-hydroxy-N-(isoxazol-4-yl)-1-methyl-6-oxo-1,6-dihydropyrimidine-4-carboxamide], the half-inhibitory concentration (IC50) in experiment [1] was in the range of 10 to 100 µM; in experiment [2], 0.1 to 1 µM.
For `Cn1c(N2CCC[C@@H]2c2ccccc2)nc(C(=O)Nc2cnoc2)c(O)c1=O` [Example 113, (R)-5-hydroxy-N-(isoxazol-4-yl)-1-methyl-6-oxo-2-(2-phenylpyrrolidin-1-yl)-1,6-dihydropyrimidine-4-carboxamide] the same measures were 1 to 10 µM and < 0.1 µM.
In the case of `Cc1c(Br)cccc1-c1nc(C(=O)Nc2cnoc2)c(O)c(=O)n1C` [Example 5, 2-(3-bromo-2-methylphenyl)-5-hydroxy-N-(isoxazol-4-yl)-1-methyl-6-oxo-1,6-dihydropyrimidine-4-carboxamide], the 50% inhibitory concentration (IC50) in experiment [1] is 1 to 10 µM; in experiment [2], < 0.1 µM.
For `Cn1c(C2(c3ccccc3)CC2)nc(C(=O)Nc2cnoc2)c(O)c1=O` [Example 20, 5-hydroxy-N-(isoxazol-4-yl)-1-methyl-6-oxo-2-(1-phenylcyclopropyl)-1,6-dihydropyrimidine-4-carboxamide] the same measures were 10 to 100 µM and 0.1 to 1 µM.
